{"source": "patent US20050112573A1", "about": "“Method of detecting toxic substance” (priority 2001, published 2005)", "system": "yeast genes (level of expressed mRNA)", "assay": "DNA chip analysis of expressed mRNA of yeast genes after 2 h culture with a toxic chemical substance", "format": "cell-based, Saccharomyces cerevisiae S288C", "in_short": "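S. cerevisiae S288C grown at 25° C in YPD; toxicant added at log phase at growth-inhibitory, non-lethal levels for 2 h, untreated cells as control. Poly(A) mRNA reverse-transcribed with Cy3/Cy5-dUTP, hybridized to whole-genome chip at 65° C >12 h; value is fluorescence ratio versus untreated.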", "data": [{"substance": "CdCl2 [(2)]", "values": [{"measurement": "The level of expressed mRNA in the presence of chemical substance/", "setting": "yeast gene YKL086W, ratio to control without chemical", "result": 1.1}, {"measurement": "The level of expressed mRNA in the presence of chemical substance/The level of expressed mRNA in the absence of chemical substance", "setting": "yeast gene YKL096W", "result": 0.6}, {"measurement": "The level of expressed mRNA in the presence of chemical substance/", "setting": "yeast gene YKL151C, ratio to control without chemical substance, 2 h culture", "result": 3.1}, {"measurement": "The level of expressed mRNA in the presence of chemical substance/", "setting": "yeast gene YKL153W, ratio to control without chemical substance, 2 h culture", "result": 1.4}, {"measurement": "The level of expressed mRNA in the presence of chemical substance/The level of expressed mRNA in the absence of chemical substance", "setting": "yeast gene YKL165C", "result": 2.0}, {"measurement": "The level of expressed mRNA in the presence of chemical substance/The level of expressed mRNA in the absence of chemical substance", "setting": "yeast gene YKL193C", "result": 0.8}, {"measurement": "The level of expressed mRNA in the presence of chemical substance/", "setting": "yeast gene YKL195W, ratio to control without chemical substance, 2 h culture", "result": 0.5}, {"measurement": "The level of expressed mRNA in the presence of chemical substance/in the absence of chemical substance", "setting": "yeast gene YKR009C", "result": 1.2}, {"measurement": "The level of expressed mRNA in the presence of chemical substance/", "setting": "yeast gene YKR091W, ratio to control without chemical", "result": 2.3}, {"measurement": "The level of expressed mRNA in the presence of chemical substance/", "setting": "yeast gene YLR054C, ratio to control without chemical substance, 2 h culture", "result": 1.5}, {"measurement": "The level of expressed mRNA in the presence of chemical substance/The level of expressed mRNA in the absence of chemical substance", "setting": "yeast gene YLR120C", "result": 1.9}, {"measurement": "The level of expressed mRNA in the presence of chemical substance/The level of expressed mRNA in the absence of chemical substance", "setting": "yeast gene YLR136C", "result": 9.0}, {"measurement": "The level of expressed mRNA in the presence of chemical substance/", "setting": "yeast gene YLR149C, ratio to control without chemical substance, 2 h culture", "result": 1.9}, {"measurement": "The level of expressed mRNA in the presence of chemical substance/", "setting": "yeast gene YLR152C, ratio to control without chemical substance, 2 h culture", "result": 1.3}, {"measurement": "The level of expressed mRNA in the presence of chemical substance/The level of expressed mRNA in the absence of chemical substance", "setting": "yeast gene YLR178C", "result": 6.9}, {"measurement": "The level of expressed mRNA in the presence of chemical substance/", "setting": "yeast gene YLR194C, ratio to control without chemical", "result": 2.2}, {"measurement": "The level of expressed mRNA in the presence of chemical substance/The level of expressed mRNA in the absence of chemical substance", "setting": "yeast gene YLR250W", "result": 1.0}, {"measurement": "The level of expressed mRNA in the presence of chemical substance/", "setting": "yeast gene YLR324W, ratio to control without chemical substance, 2 h culture", "result": 1.2}, {"measurement": "The level of expressed mRNA in the presence of chemical substance/The level of expressed mRNA in the absence of chemical substance", "setting": "yeast gene YLR327C", "result": 3.3}, {"measurement": "The level of expressed mRNA in the presence of chemical substance/", "setting": "yeast gene YLR350W, ratio to control without chemical substance, 2 h culture", "result": 1.9}, {"measurement": "The level of expressed mRNA in the presence of chemical substance/in the absence of chemical substance", "setting": "yeast gene YLR351C", "result": 1.4}, {"measurement": "The level of expressed mRNA in the presence of chemical substance/The level of expressed mRNA in the absence of chemical substance", "setting": "yeast gene YLR356W", "result": 2.9}, {"measurement": "The level of expressed mRNA in the presence of chemical substance/The level of expressed mRNA in the absence of chemical substance", "setting": "yeast gene YLR362W", "result": 1.2}, {"measurement": "The level of expressed mRNA in the presence of chemical substance/in the absence of chemical substance", "setting": "yeast gene YLR375W", "result": 1.5}, {"measurement": "The level of expressed mRNA in the presence of chemical substance/", "setting": "yeast gene YLR387C, ratio to control without chemical substance, 2 h culture", "result": 1.6}, {"measurement": "The level of expressed mRNA in the presence of chemical substance/The level of expressed mRNA in the absence of chemical substance", "setting": "yeast gene YLR391W", "result": 0.7}, {"measurement": "The level of expressed mRNA in the presence of chemical substance/The level of expressed mRNA in the absence of chemical substance", "setting": "yeast gene YLR429W", "result": 1.0}, {"measurement": "The level of expressed mRNA in the presence of chemical substance/", "setting": "yeast gene YLR460C, ratio to control without chemical substance, 2 h culture", "result": 2.1}, {"measurement": "The level of expressed mRNA in the presence of chemical substance/", "setting": "yeast gene YML117W, ratio to control without chemical substance, 2 h culture", "result": 2.2}, {"measurement": "The level of expressed mRNA in the presence of chemical substance/The level of expressed mRNA in the absence of chemical substance", "setting": "yeast gene YMR004W", "result": 0.9}, {"measurement": "The level of expressed mRNA in the presence of chemical substance/", "setting": "yeast gene YMR009W, ratio to control without chemical substance, 2 h culture", "result": 1.9}, {"measurement": "The level of expressed mRNA in the presence of chemical substance/", "setting": "yeast gene YMR067C, ratio to control without chemical substance, 2 h culture", "result": 0.9}, {"measurement": "The level of expressed mRNA in the presence of chemical substance/", "setting": "yeast gene YMR090W, ratio to control without chemical substance, 2 h culture", "result": 9.5}, {"measurement": "The level of expressed mRNA in the presence of chemical substance/The level of expressed mRNA in the absence of chemical substance", "setting": "yeast gene YMR094W", "result": 0.5}, {"measurement": "The level of expressed mRNA in the presence of chemical substance/", "setting": "yeast gene YMR095C, ratio to control without chemical", "result": 2.0}, {"measurement": "The level of expressed mRNA in the presence of chemical substance/", "setting": "yeast gene YMR097C, ratio to control without chemical substance, 2 h culture", "result": 1.0}, {"measurement": "The level of expressed mRNA in the presence of chemical substance/", "setting": "yeast gene YMR102C, ratio to control without chemical substance, 2 h culture", "result": 2.9}, {"measurement": "The level of expressed mRNA in the presence of chemical substance/The level of expressed mRNA in the absence of chemical substance", "setting": "yeast gene YMR104C", "result": 14.3}, {"measurement": "The level of expressed mRNA in the presence of chemical substance/", "setting": "yeast gene YMR107W, ratio to control without chemical substance, 2 h culture", "result": 3.9}, {"measurement": "The level of expressed mRNA in the presence of chemical substance/", "setting": "yeast gene YMR180C, ratio to control without chemical substance, 2 h culture", "result": 0.9}, {"measurement": "The level of expressed mRNA in the presence of chemical substance/", "setting": "yeast gene YMR184W, ratio to control without chemical substance, 2 h culture", "result": 5.4}, {"measurement": "The level of expressed mRNA in the presence of chemical substance/", "setting": "yeast gene YMR191W, ratio to control without chemical substance, 2 h culture", "result": 2.4}, {"measurement": "The level of expressed mRNA in the presence of chemical substance/The level of expressed mRNA in the absence of chemical substance", "setting": "yeast gene YMR219W", "result": 1.1}, {"measurement": "The level of expressed mRNA in the presence of chemical substance/The level of expressed mRNA in the absence of chemical substance", "setting": "yeast gene YMR226C", "result": 1.8}, {"measurement": "The level of expressed mRNA in the presence of chemical substance/in the absence of chemical substance", "setting": "yeast gene YMR267W", "result": 1.8}, {"measurement": "The level of expressed mRNA in the presence of chemical substance/The level of expressed mRNA in the absence of chemical substance", "setting": "yeast gene YMR275C", "result": 0.7}, {"measurement": "The level of expressed mRNA in the presence of chemical substance/The level of expressed mRNA in the absence of chemical substance", "setting": "yeast gene YMR276W", "result": 1.4}, {"measurement": "The level of expressed mRNA in the presence of chemical substance/in the absence of chemical substance", "setting": "yeast gene YMR278W", "result": 1.7}, {"measurement": "The level of expressed mRNA in the presence of chemical substance/in the absence of chemical substance", "setting": "yeast gene YMR293C", "result": 1.5}, {"measurement": "The level of expressed mRNA in the presence of chemical substance/", "setting": "yeast gene YMR295C, ratio to control without chemical substance, 2 h culture", "result": 1.0}, {"measurement": "The level of expressed mRNA in the presence of chemical substance/The level of expressed mRNA in the absence of chemical substance", "setting": "yeast gene YMR314W", "result": 1.2}, {"measurement": "The level of expressed mRNA in the presence of chemical substance/", "setting": "yeast gene YMR316W, ratio to control without chemical substance, 2 h culture", "result": 2.9}, {"measurement": "The level of expressed mRNA in the presence of chemical substance/The level of expressed mRNA in the absence of chemical substance", "setting": "yeast gene YNL006W", "result": 2.1}, {"measurement": "The level of expressed mRNA in the presence of chemical substance/The level of expressed mRNA in the absence of chemical substance", "setting": "yeast gene YNL007C", "result": 2.4}, {"measurement": "The level of expressed mRNA in the presence of chemical substance/", "setting": "yeast gene YNL044W, ratio to control without chemical substance, 2 h culture", "result": 0.9}]}]}
